Molecules are shown by their SMILES.

One compound from PMC9137581, “Identification of a Novel Class of Anti-Melanogenic Compounds, (Z)-5-(Substituted benzylidene)-3-phenyl-2-thioxothiazolidin-4-one Derivatives, and Their Reactive Oxygen Species Scavenging Activities” (Antioxidants, 2022) can be followed below.

What all share (assay type): cell-based, murine
In test [1] the test system is tyrosinase. In words: Western blot of cytosolic tyrosinase protein. The following applies: 2.5–20 µM, 24 h, cytosolic fraction, B16F10 cells. How it is done: B16F10 cells were treated with five concentrations (0, 2.5, 5, 10, and 20 µM) of analog 2 for 24 h, washed twice with cold PBS, and then harvested. Pellets were then suspended in buffer A [NaBu, β-glycerophosphate, 1 M HEPES, 100 mM MgCl, 500 mM DTT, 100 mM NaF, 10 mM Na-orthovanadate, pepstatin, aprotinin, leupeptin, 1% NP-40, and PMSF], incubated on ice for 20 min, and then centrifuged at 12,000 rpm for 10 min at 4 °C. The supernatants that were obtained contained cytosolic fractions. The pellets were resuspended in buffer B [NaBu, β-glycerophosphate, 1 M HEPES, 5 M NaCl, 10 mM Na-orthovanadate, pepstatin, aprotinin, leupeptin, 100 mM NaF, 100 mM EDTA, and PMSF], incubated on ice for 30 min, and then centrifuged at 12,000 rpm for 20 min at 4 °C. The resultant supernatants contained nuclear fractions.
Protein concentrations were determined using a BCA™ protein assay kit (Pierce, Rockford, IL, USA). Briefly, lysed samples were boiled for 10 min in gel-loading buffer (0.125 M Tris-HCl, pH 6.8, 4% SDS, 10% 2-mercaptoethanol, and 0.2% bromophenol blue) at a volume ratio of 1:1. […] The western blot data were quantified using CS Analyser 3.2 (Densitograph) image analysis software (http://www.attokorea.co.kr, accessed on 4 March 2022).
Background: Immunoblotting shows a protein as a band on a membrane.

The test system of test [2] is tyrosinase. In words: qRT-PCR of tyrosinase mRNA. The following applies: versus non-treated controls, B16F10 cells. On the procedure:
(§1) The total RNAs from the cells were purified using the RiboEx Total RNA solution (GeneAll Biotechnology, Seoul, Korea) and the cDNA was synthesized from the total RNA (2 µg) using SuPrimeScript RT Premix with random hexamer (GeNet Bio, Daejeon, Korea), according to the manufacturers’ instructions. Real-time qPCR was performed using SensiFASTTM SYBR® No-ROX dye (Bioline, London, UK) and a CFX Connect System (Bio-Rad Laboratories, Hercules, CA, USA). The qRT-PCR primers that are specifically for tyrosinase, TRP-1, TRP-2, and β-actin were obtained from Bioneer Inc. (Daejeon, Korea). The relative gene expressions were calculated using the standard curve method and β-actin as the internal control.
Background: Quantitative PCR measures a nucleic acid by following its amplification.

The next test has as its system TRP-1. In words: qRT-PCR of TRP-1 mRNA. The following applies: versus non-treated controls, B16F10 cells. On the procedure:
as §1

Another test relates to TRP-2. Put plainly: qRT-PCR of TRP-2 mRNA. The following applies: versus non-treated controls, B16F10 cells. On the procedure:
as §1

Consider `O=C1/C(=C/c2ccc(O)c(O)c2)SC(=S)N1c1ccccc1` [Analog 2, (Z)-5-(3,4-Dihydroxybenzylidene)-3-phenyl-2-thioxothiazolidin-4-one], for which, in the test on tyrosinase [1], the tyrosinase protein level entry was “significantly and concentration-dependently reduced”. For the same compound, the “tyrosinase mRNA expression level” value in the test with tyrosinase [2] was “significantly and concentration-dependently reduced”. Further, in the test on TRP-1, the “TRP-1 mRNA expression level” value is “significantly and concentration-dependently reduced”. In addition, the “TRP-2 mRNA expression level” value in the test with TRP-2 is “significantly and concentration-dependently reduced”.
